Source: paper PMC12293736, “Discovery of N-(6-Methoxypyridin-3-yl)quinoline-2-amine Derivatives for Imaging Aggregated α-Synuclein in Parkinson’s Disease with Positron Emission Tomography” (Cells, 2025)
pKi: −log10 of the molar value. Where two headings read alike, the source gives them in different places.

Target: recombinant α-synuclein fibrils (Homo sapiens, UniProt P37840)
Assay: radioactive competitive binding assay with [^3H]BF2846 (Tables 1 and 2: or [^18F]7j with LBD-amplified fibrils)
Experimental: Three concentrations of the test compounds (10 nM, 100 nM, and 1 μM) were selected and individually mixed with [^3H]BF2846 (∼4 nM). Each mixture was then separately added to 50 nM of recombinant α-syn fibrils in a working buffer (50 mM Tris-HCl, 0.01% bovine serum albumin (BSA)). The mixture (150 μL) was gently mixed via agitation, covered, and then incubated at 37 °C for 1.5 h in a non-binding 96-well plate (Corning Inc., Corning, NY, USA; catalog no. 3605). The mixture was filtered through a Unifilter-96 harvesting system (PerkinElmer Inc., Waltham, MA, USA) and then washed three times with 250 μL of ice-cold buffer containing 10 mM Tris-HCl (pH 7.4), 15 mM NaCl, and 20% EtOH. Next, 50 μL of scintillation cocktail (MicroScint-20, PerkinElmer) was added to the collected filtrate and counted on a Microbeta system (PerkinElmer Inc., Waltham, MA, USA). The total binding was measured in the absence of the tested compounds, and non-specific binding was defined by the presence of 100 nM of unlabeled BF2846 in the working buffer.
For the full curve of α-syn competition binding, [^3H]BF2846 (∼4 nM) was incubated with fixed concentrations of 50 nM α-syn fibrils and ten concentrations of the tested compounds (0.05−1000 nM). All data points were collected in three individual experiments. The equilibrium inhibition constants, Ki values, were obtained from EC50 values using the equation Ki = EC50/(1 + [radioligand]/Kd) via non-linear regression from GraphPad Prism v.9.3.1 (GraphPad Software, San Diego, CA, USA) […]
In addition, competition assays were performed with LBD-amplified fibrils and [^18F]TZ61-44 with slight modifications. The method used to produce LBD-amplified fibrils is described by Dhavale et al., and the source of the tissue was the Banner Sun Health Research Institute Brain and Body Donation Program of Sun City, Arizona. Each test compound concentration (0.001–1 µM) was individually mixed with [^18F]TZ61-44 (2 nM), and the resulting mixture was then added to 25 nM of LBD-amplified fibrils in 30 mM of Tris-HCl buffer (pH 7.4) containing 0.1% BSA. The mix was incubated for 1 h with shaking. The samples were then transferred to Multiscreen FB filter plates (Catalog MSFBN6B50, MilliporeSigma) and washed three times with cold (4 °C) buffer. The glass fiber filters containing fibril-bound radioligands were removed and counted immediately in a PerkinElmer (1450-021) Trilux MicroBeta Liquid Scintillation counter using 150 µL of Optiphase Supermix cocktail (Perkin Elmer). All data points were obtained in triplicate. The data were analyzed using Graphpad Prism software (version 10) to the obtain EC50 and Ki values by fitting the data to a one-site competition model. The synthesis of the tested compounds is described in the Supporting Information. […]
6. Alpha-Synuclein Binding Affinity Studies a). Determination of α-synuclein binding activity using radioactive competitive assay [ 3H]BF2846 Three concentrations of test compounds (10nM, 100nM, and 1μM) were selected and individually mixed with [3H]BF2846 ( ∼4 nM). Each mixture was then separately added to 50 nM of recombinant α-syn fibrils in a working buffer (50 mM Tris-HCl, 0.01% bovine serum albumin (BSA)). The mixture (150 μL) was gently mixed by agitation, covered, and then incubated at 37°C for 1.5 h in a nonbinding 96 well plate (Corning, 3605). The mixture was filtered through a Unifilter – 96 harvesting system (PerkinElmer) and then washed three times with 250 μL of ice-cold buffer containing 10 mM Tris – HCl (pH7.4), 15mM NaCl, and 20% EtOH. 50μL of scintillation cocktail (MicroScint-20, PerkinElmer) was added to the collected filtrate and counted on a Microbeta system (PerkinElmer). Total binding was measured in the absence of tested compounds, and nonspecific binding was defined by the presence of 100 nM unlabeled BF2846 in the working buffer. The data analysis was carried out in the following equation and graphically presented with a heatmap. […]

[1] = Table 3, [^3H]BF2846 indirect competitive binding assay, read-out: Ki
[2] = Table 2, [^3H]BF2846 or [^18F]7j indirect competitive binding assay, read-out: Ki
[3] = [^3H]BF2846 competitive assay, read-out: Ki value for α-synuclein fibrils
[4] = Table 1, vs. [^3H]BF2846 or [^18F]7j as radioligand, NB = no binding affinity measurable, read-out: Ki

Row | SMILES | pKi [1] | pKi [2] | also measured
1 | COc1ccc(Nc2ccc3nc(Nc4ccc(OC)nc4)ccc3c2)cn1 [Compound 8j] | < 6.00 | – | –
2 | COc1ccc(Nc2ccc3cc(OC(F)(F)F)ccc3n2)cn1 [Compound 7h] | – | ~7.00 | pKi [3]: 7.00
3 | COc1ccc(Nc2ccc3cc(OCc4ccccc4)ccc3n2)cn1 [Compound 8c] | 7.32 | – | –
4 | COc1ccc(Nc2ccc3cc(OCCOCCOCCF)ccc3n2)cn1 [Compound 7l] | 7.31 | – | –
5 | COc1ccc(Nc2ccc3cc(OCC(F)(F)F)ccc3n2)cn1 [Compound 7u] | 7.35 | – | –
6 | COc1ccc(Nc2ccc3cc([N+](=O)[O-])ccc3n2)cn1 [Compound 7a] | – | 7.68 | –
7 | COc1ccc(Nc2ccc3ncccc3c2)cn1 [Compound 3d] | – | – | pKi [4]: < 6.00
8 | COc1ccc(Nc2ccc3cc(OCCOCCF)ccc3n2)cn1 [Compound 7k] | 7.30 | – | –
9 | COc1ccc(Nc2ccc3cc(OS(=O)(=O)F)ccc3n2)cn1 [Compound 7i] | – | 6.49 | –
10 | COc1ccc(Nc2ccc3cc(OCCOCCOCCOCCF)ccc3n2)cn1 [Compound 7m] | 7.38 | – | –
11 | FCCOc1ccc2nc(Nc3ccc(C(F)(F)F)nc3)ccc2c1 [Compound 7p] | 7.09 | – | –
12 | COc1ccc(Nc2ccc3cc(O)ccc3n2)cn1 [Compound 7e, 2-((6-Methoxypyridin-3-yl)amino)quinolin-6-ol] | – | 7.15 | –
13 | COc1ccc(Nc2ccc3cc(OCCF)ccc3n2)cn1 [Compound 7j] | – | 8.19 | –
14 | COc1ccc2nc(Nc3ccc(C(F)(F)F)nc3)ccc2c1 [Compound 7o] | 6.74 | – | –
15 | COc1ccc(Nc2ccc3cccnc3c2)cn1 [Compound 3g] | – | – | pKi [4]: < 6.00
16 | COc1ccc2nc(Nc3ccc(OC)nc3)ccc2c1 [Compound 7f] | – | 8.34 | –
17 | COc1ccc(Nc2ccc3cc(N)ccc3n2)cn1 [Compound 7c] | – | 7.09 | –
18 | COc1ccc(Nc2ccc3cc(OCC4CCCCC4)ccc3n2)cn1 [Compound 8b] | < 6.30 | – | –
19 | COc1ccc(Nc2ccc3cc(OC/C=C/I)ccc3n2)cn1 [Compound 8i] | 8.30 | – | –
20 | COc1ccc(Nc2ccc3ccncc3c2)cn1 [Compound 3f] | – | – | pKi [4]: < 6.00

Row | SMILES | pKi [1] | pKi [2] | also measured
21 | COc1ccc(COc2ccc3nc(Nc4ccc(OC)nc4)ccc3c2)cc1 [Compound 8f] | 7.70 | – | –
22 | COc1ccc2nc(Nc3ccc(F)nc3)ccc2c1 [Compound 7n] | 6.40 | – | –
23 | COc1ccc(Nc2cc(F)c3ccccc3n2)cn1 [Compound 5b] | – | 7.19 | –
24 | COc1ccc(Nc2ccc3c(F)cccc3n2)cn1 [Compound 5c] | – | 7.48 | –
25 | COc1ccc(Nc2ccc3cnccc3c2)cn1 [Compound 3e] | – | – | pKi [4]: 7.34
26 | FCCOc1ccc2nc(Nc3cccnc3)ccc2c1 [Compound 7t] | < 6.30 | – | –
27 | COc1ccc(Nc2ccc3cc(OCC4COC4)ccc3n2)cn1 [Compound 8a] | < 6.30 | – | –
28 | Cc1ccc(Nc2ccc3cc(OCCF)ccc3n2)cn1 [Compound 7s] | 7.58 | – | –
29 | COc1ccc2nc(Nc3ccc(SC)nc3)ccc2c1 [Compound 7r] | 6.71 | – | –
30 | COc1ccc2nc(Nc3ccc(OC(F)(F)F)nc3)ccc2c1 [Compound 7q] | 8.00 | – | –
31 | COc1ccc(Nc2ccc3cc(OCc4cccnc4)ccc3n2)cn1 [Compound 8e] | 7.62 | – | –
32 | COc1ccc(Nc2ccc3cc(OC(F)F)ccc3n2)cn1 [Compound 7g] | – | 7.64 | –
33 | COc1ccc(Nc2ccc3cc(OCc4ccc(F)cc4)ccc3n2)cn1 [Compound 8h] | 7.18 | – | –
34 | COc1ccc(Nc2cnc3ccccc3c2)cn1 [Compound 3c] | – | – | pKi [4]: 6.38
35 | COc1ccc(Nc2ccc3ccc(F)cc3n2)cn1 [Compound 5e] | – | 7.28 | –
36 | COc1ccc(Nc2ccc3cc(F)ccc3n2)cn1 [Compound 5d] | – | 7.57 | –
37 | COc1cccc(COc2ccc3nc(Nc4ccc(OC)nc4)ccc3c2)c1 [Compound 8g] | 7.44 | – | –
38 | COc1ccc(Nc2ccc3ccccc3n2)cn1 [Compound 3a] | – | – | pKi [4]: ~7.00; pKi [3]: 7.00
39 | COc1ccc(Nc2ccc3cccc(F)c3n2)cn1 [Compound 5f] | – | 7.39 | –
